Data as given in US5494907A, “11-β substituted-19-nor steroids” (Roussel UCLAF, priority 1993, dated 1996).

Legend:
[1] = biological target: T1, hER (recombinant human estrogen receptor) (Homo sapiens, UniProt P03372); test: Relative bond affinity (RBA) on recombinant human estrogen receptor, displacement of tritiated estradiol; type: binding; settings: for RBA hER: Estradiol = 100, 0° C., 24 hours; for affinity for the estrogen receptor (in words): conclusion in words
T1 construct: made in house; host or cells: SF9 insect cells, recombinant baculovirus
T1 sequence (P03372 1-595): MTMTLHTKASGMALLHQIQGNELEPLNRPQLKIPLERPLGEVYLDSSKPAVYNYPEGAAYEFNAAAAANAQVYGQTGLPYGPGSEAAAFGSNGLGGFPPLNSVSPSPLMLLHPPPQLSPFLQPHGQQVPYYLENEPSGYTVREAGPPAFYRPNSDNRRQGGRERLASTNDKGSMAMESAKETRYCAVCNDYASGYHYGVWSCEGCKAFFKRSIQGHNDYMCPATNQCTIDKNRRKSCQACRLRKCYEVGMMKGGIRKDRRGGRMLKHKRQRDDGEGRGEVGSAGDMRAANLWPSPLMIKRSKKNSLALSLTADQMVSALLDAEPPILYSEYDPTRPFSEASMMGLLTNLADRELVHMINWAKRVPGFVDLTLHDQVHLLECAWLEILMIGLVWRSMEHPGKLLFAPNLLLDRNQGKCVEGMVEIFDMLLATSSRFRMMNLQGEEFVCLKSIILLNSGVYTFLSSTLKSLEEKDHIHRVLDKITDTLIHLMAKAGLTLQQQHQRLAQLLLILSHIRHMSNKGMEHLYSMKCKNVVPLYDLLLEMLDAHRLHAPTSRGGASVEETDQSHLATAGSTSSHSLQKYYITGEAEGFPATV
Excerpt: 1--Activity on the hormonal receptors using either the natural hormonal receptor of a rat (AR), or the recombinant human receptor (PR, GR and ER).
A supernatant of SF9 cells containing the recombinant human estrogen receptor was obtained by the process described above for the progesterone receptor using the cDNA fragment described in the HEGO expression vector by TORA et al. (EMBO Journal (1989), Vol. 8 N° 7, pp. 1981-1986), containing the region coding for the human estrogen receptor of "wild type" with a glycine in position 400. The cells were lysed in the lysis buffer (1). The supernatant was incubated at 0° C. for 24 hours with a constant concentration (T) of tritiated estradiol in the presence of increasing concentrations either of unlabelled estradiol (0-1000×10^-9 M), or of the unlabelled product under test (1 to 25000×10^-9 M). The concentration of bound tritiated estradiol (B) was then measured in each incubate by the technique of adsorption with carbon dextran.
Calculation of the relative bond affinity (RBA).
The following 2 curves were traced: percentage of bound tritiated hormone B/BO as a function of the logarithm of the concentration of unlabelled reference hormone or as a function of the logarithm of the concentration of the unlabelled product under test.
The straight line of the following equation was determined:
BO=Concentration of bound tritiated hormone in the absence of any unlabelled product,
B=Concentration of bound tritiated hormone in the presence of a concentration X of unlabelled product,
B min=Concentration of bound tritiated hormone in the presence of a large excess of cold reference hormone (500 nM). The intersections of the straight line I50 and the curves allowed the evaluation of the concentrations of unlabelled reference hormone (CH) and of the unlabelled product under test (CX) which inhibited by 50% the specific binding of the tritiated hormone on the receptor.
The relative bond affinity (RBA) of the product under test was determined by the equation:
The RBA's of the reference products estradiol, progesterone, dexamethasone and testosterone were arbitrarily taken to be equal to 100.

[2] = system: MCF-7 human breast tumour cells; test: Anti-proliferative activity on the growth of MCF-7 human breast tumour cells (DNA dosage); type: cell-based; settings: MCF7, stimulated by EGF + PDGF, D7 to D9, read-out: IC50, concentration which inhibited by 50% the growth of the MCF-7 cells
Method: 2--Anti-proliferative activity on the growth of MCF-7 human breast tumour cells
The MCF-7 lines were maintained in culture in a base medium (according to 1) containing 5% of foetal calf serum at 37° C. under a humid atmosphere containing 5% CO2. The subconfluent cells were collected by trypsination (0.1% trypsin, 0.02% EDTA) and then rinsed by gentle centrifuging. A sample of the cells in suspension was counted with a Malassez cell.
The cells were resuspended in a base medium without phenol red in the presence of 5% of steroid-free FCS, and stimulated either by 0.1 nM of estradiol, or by 10 ng/ml of EGF+1 ng/ml of PDGF. The cells were seeded at a rate of 50,000 cells per well in multi-well plates (24 wells of 2.5 cm^2). Twenty-four hours after the seeding (DO), the product to be tested was added to the mixture in ethanolic solution (final concentration of ethanol: 0.1%), at a concentration of 10^-11 to 10^-6 M, the control wells receiving the same concentration of ethanol. The media containing the products were renewed every 48 hours. At the end of the experiment (D7 to D9), the mixture was extracted and the cells were immediately fixed with 250 microliters of methanol to dose the DNA. The anti-proliferative activity of the products was evaluated by their capacity to inhibit the increase of DNA relative to the control.
The DNA was dosed by a fluorimetric method using DABA (3,5diaminobenzoic acid) (according to 2): 200 microliters of DABA were added to each well and the plates were incubated for 45 minutes at 56° C. Then, 2 ml of 1N HCl were added and the fluorescence was measured using a fluorimeter (excitation wavelength: 408 nm, emission wavelength: 510 nm). The quantity of DNA per well was evaluated relative to a reference scale obtained by treating a calf thymus DNA standard under the same conditions.
The concentration in nM which inhibited by 50% the growth of the MCF-7 cells stimulated by EGF +PDGF (IC50) was determined in the manner indicated above.

SMILES | RBA hER [1] | affinity for the estrogen receptor (in words) [1] | IC50 [2] [nM]
CCCCNS(=O)(=O)CCCCCOc1ccc([C@H]2C[C@]3(C)[C@@H](O)CC[C@H]3[C@@H]3CCc4cc(O)ccc4[C@H]32)cc1 [Example 2, N-butyl-5-[4-(Δ1,3,5(10)-estratrien-3,17β-diol-11β-yl)phenoxy]-pentanesulfonamide] | 21 | marked affinity | 0.016
CCCCN(C)S(=O)(=O)CCCCCOc1ccc([C@H]2C[C@]3(C)[C@@H](O)CC[C@H]3[C@@H]3CCc4cc(O)ccc4[C@H]32)cc1 [Example 7, N-butyl-5-[4-(Δ1,3,5(10)-estratrien-3,17β-diol-11β-yl)phenoxy]-N-methyl-pentanesulfonamide] | 4 |  | 0.015
CN(CC(F)(F)C(F)(F)C(F)(F)F)S(=O)(=O)CCCCCOc1ccc([C@H]2C[C@]3(C)[C@@H](O)CC[C@H]3[C@@H]3CCc4cc(O)ccc4[C@H]32)cc1 [Example 8, 5-[4-(Δ1,3,5(10)-estratrien-3,17β-diol-11βyl)-Phenoxy]-N-(2,2,3,3,4,4,4-heptafluorobutyl)-N-methyl-pentanesulfonamide] | 19 | marked affinity | 0.026
